Source: PubChem BioAssay (NCI)
Several values for one entry are separate records, joined by “and”; a condition that tells them apart may be missing. Equal entries are not always repeated.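 Results reflect a 48-hour exposure of cells in 96-well plates to compound at five concentrations. GI50 = concentration required for 50% inhibition of growth. TGI marks complete inhibition of growth.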

How the values were obtained:
Experiment in all cases: DTP human tumour cell line panel, 48 h
PC-3 prostate = system: PC-3 prostate
DU-145 prostate = system: DU-145 prostate
MDA-MB-231 breast = system: MDA-MB-231 breast
MCF7 breast = system: MCF7 breast
HS 578T breast = system: HS 578T breast
LXFL 529 NSCLC = system: LXFL 529 NSCLC
SNB-78 CNS = system: SNB-78 CNS
DMS 114 small cell lung = system: DMS 114 small cell lung
DMS 273 small cell lung = system: DMS 273 small cell lung

Structure (SMILES) | GI50 (PC-3 prostate) [µM] | TGI (PC-3 prostate) [µM] | GI50 (DU-145 prostate) [µM] | TGI (DU-145 prostate) | GI50 (MDA-MB-231 breast) [µM] | TGI (MDA-MB-231 breast) [µM] | GI50 (MCF7 breast) [µM] | TGI (MCF7 breast) | GI50 (HS 578T breast) [µM] | TGI (HS 578T breast) [µM] | TGI (LXFL 529 NSCLC) [µM] | TGI (SNB-78 CNS) [µM] | TGI (DMS 114 small cell lung) [µM] | GI50 (DMS 273 small cell lung) [µM] | TGI (DMS 273 small cell lung) [µM] | GI50 (LXFL 529 NSCLC) [µM] | GI50 (SNB-78 CNS) [µM] | GI50 (DMS 114 small cell lung) [µM]
CC(=O)OC1CCC2(C)C(=CCC3C4CC(CN5CC5)C(=O)C4(C)CCC32)C1 (stereo not drawn) | 12.7 | 26.8 | 8.29 | 20.4 µM | 11.8 | 25 | 0.67 | 2.68 µM | 20.4 | 65.8 |  |  |  |  |  |  |  | 
Brc1ccc2c(c1)-c1ccccc1C1=NCCN12 | 0.763 | 11 | 1.09 | 10.9 µM | 1.73 | 4.29 | 0.552 | 10.9 µM | 2.8 | 12 |  |  |  |  |  |  |  | 
COc1ccc(S(=O)(=O)NCCCNc2nccc(-c3c(-c4ccc(F)cc4)nc4sccn34)n2)cc1 | 8.74 | > 100 | 7.14 | > 100 µM | 7.27 | > 100 | 2.74 | > 100 µM | 3.58 | > 100 |  |  |  |  |  |  |  | 
Cc1[nH]n(C(=O)c2ccc(Cl)cc2)c(=O)c1/C=C1\C(O)=CC(=O)c2ccccc21 |  |  |  |  |  |  |  |  |  |  | > 100 | > 100 | > 100 |  |  |  |  | 
CS(=O)(=O)Nc1ccc(Nc2c3ccccc3nc3cc(Cl)ccc23)cc1 | 2.47 | 19.4 | 0.646 | 14 µM | 4.56 | 19.8 | 0.389 | 13.4 µM | 2.83 | 40.4 |  |  |  |  |  |  |  | 
COc1ccc(-c2ccc(/C=N/n3c(COc4ccc(Cl)c(C)c4)nn(CN4CCOCC4)c3=S)o2)c([N+](=O)[O-])c1 | 17.7 | 51.1 | 38 | > 100 µM |  |  | > 100 | > 100 µM | 37.8 | > 100 |  |  |  |  |  |  |  | 
CC(C)=NO.CC(C)=NO.CC(C)=NO.CC(C)=NO.[Ti] |  |  |  |  |  |  |  |  |  |  | > 100 | > 100 | > 100 | > 100 | > 100 | > 100 | > 100 | > 100
OCCn1c(-c2ccncc2)c(-c2ccc(F)cc2)c2ncccc21 | > 25 | > 25 | > 25 | > 25 µM | > 25 | > 25 | > 25 | > 25 µM | > 25 | > 25 |  |  |  |  |  |  |  | 
CN(C)C(=O)c1cc2cnc(Nc3ccc(N4CCNCC4)cn3)nc2n1C1CCCC1 | 1.01 | 62.9 | 23.5 | > 100 µM | 8.48 | 74.5 | 0.592 | 37.2 µM | 13.8 | 53.5 |  |  |  |  |  |  |  | 
COc1cc(/C=C/C(=O)c2c(-c3ccc(Cl)cc3)nc3sc(C)nn23)cc(OC)c1OC |  |  | > 100 | > 100 µM | 14.3 | > 100 | 8.81 | > 100 µM | 24.7 | > 100 |  |  |  |  |  |  |  | 
COc1cc([C@H]2c3cc(O)c(OC)cc3C[C@]3(O)[C@@H]2CO[C@@H]3O)ccc1O |  | > 100 |  | > 100 µM |  | > 100 |  | > 100 µM |  | > 100 |  |  |  |  |  |  |  | 
COc1ccc(C[C@H](N)C(=O)N[C@@H]2[C@@H](CO)OC(n3cnc4c(N(C)C)ncnc43)[C@@H]2O)cc1 (stereo partly drawn) | 0.311 | 1.73 | 0.458 | 2.53 µM | 0.466 | 1.22 | 0.152 | 0.621 µM | 0.304 | 2.11 |  |  |  |  |  |  |  | 
CCCCc1c2c(nc3c1CC/C(=C\c1ccccc1)C3=O)CCCC2 |  |  |  |  |  |  |  |  |  |  | 4.16 | 9.38 | 27.5 |  | 8.26 |  |  | 
CC(C)(CCc1nc2ccccc2[nH]1)C(=O)O |  | > 100 |  | > 100 µM |  | > 100 |  | > 100 µM |  | > 100 |  |  |  |  |  |  |  | 
O=C(/C=C/N1CCN(c2cccc(Cl)c2)CC1)c1ccc(Cl)cc1 | 25.3 | > 100 | 38.4 | > 100 µM | 30 | > 100 | 29.7 | > 100 µM | 26.9 | 69.6 |  |  |  |  |  |  |  | 
CCc1c[nH]c2ncnc(N3CC[C@](N)(CNC(=O)c4ccc(F)cc4F)C3)c12 | 1 | > 91.7 | 18.3 | > 100 µM | 48.5 | > 100 | 0.716 | > 100 µM | 0.513 | 24.3 |  |  |  |  |  |  |  | 
O=C(c1ccccc1)c1ccc(N2C(=O)C3C4c5ccccc5C(/C=C/C(=O)c5ccccn5)(c5ccccc54)C3C2=O)cc1 (stereo not drawn) | 3.74 | > 100 | 2.78 | 8.1 µM | 2.34 | 6.4 | 1.77 | > 100 µM | 2.98 | > 100 |  |  |  |  |  |  |  | 
C=CCCC1(CCP(=O)(c2ccccc2)c2ccccc2)OCCO1 |  | > 100 |  | > 100 µM |  | > 100 |  | > 100 µM |  | > 100 |  |  |  |  |  |  |  | 
CC(C)C12CCC3(CCC4C(C)(C(=O)O)CCCC4(C)C3C1)C(CN)C2 (stereo not drawn) |  | > 100 |  | > 100 µM |  | > 100 |  | > 100 µM |  | > 100 |  |  |  |  |  |  |  | 
CN(C)c1ccc(/C=C2\Cc3ccccc3C2=O)cc1Br |  |  |  |  |  |  |  |  |  |  | > 100 | > 100 | > 100 |  |  |  |  | 
Oc1ccc(/C=N/Nc2nnc(N/N=C/c3ccc(O)cc3O)c3ccccc23)c(O)c1 |  | 8.82 | 0.432 | 0.831 µM and 5.99 µM | 1.35 | > 46.2 | 0.576 | 0.848 µM and 2.29 µM | 0.5 | 0.954 |  |  |  |  |  |  |  | 
CCOC(=O)C1C(=O)C(=O)N2CCc3c([nH]c4ccccc34)C12 (stereo not drawn) |  |  |  |  |  |  |  |  |  |  | > 100 |  | > 100 |  |  |  |  | 
O=c1cccccc1[O-].O=c1cccccc1[O-].O=c1cccccc1[O-].[Dy+3] |  |  |  |  |  |  |  |  |  |  |  | > 100 |  | 9.28 | > 100 |  | 15.3 | 
O=NNc1nc(-c2ccccn2)nc2ccccc12 |  | > 100 |  | > 100 µM |  | > 100 |  | > 100 µM |  | > 100 |  |  |  |  |  |  |  | 
CC(=O)Nc1ccc(C(=O)NN2C(=O)CSC2c2ccccc2)cc1 (stereo not drawn) |  |  |  | > 100 µM |  | > 100 |  | > 100 µM |  | > 100 |  |  |  |  |  |  |  | 
CC(C)c1nc(Cl)c(Cl)c(Cl)n1 |  | 17.7 |  | 20.3 µM |  | 23.2 |  | 14.2 µM |  | 14 |  |  |  |  |  |  |  | 
